Data on 27 compounds can be found in ChEMBL document CHEMBL3098036, “Sulfonamide inhibition studies of the δ-carbonic anhydrase from the diatom Thalassiosira weissflogii” (Bioorg Med Chem Lett, 2014).

The assay deals with T1, Delta carbonic anhydrase (Conticribra weissflogii, UniProt Q5U9J1).
T1 sequence (Q5U9J1 whole entry): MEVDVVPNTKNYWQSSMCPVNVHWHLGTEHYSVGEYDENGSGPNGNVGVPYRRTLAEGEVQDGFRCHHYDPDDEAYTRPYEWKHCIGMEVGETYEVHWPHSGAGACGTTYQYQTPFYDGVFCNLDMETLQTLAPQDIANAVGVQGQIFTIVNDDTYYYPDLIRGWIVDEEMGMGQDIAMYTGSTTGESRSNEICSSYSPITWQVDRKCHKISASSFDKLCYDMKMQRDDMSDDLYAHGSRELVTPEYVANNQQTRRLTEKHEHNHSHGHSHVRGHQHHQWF
The compound `NS(=O)(=O)c1ccc(CCNS(=O)(=O)c2ccc([N+](=O)[O-])cc2CO)cc1` showed a Ki of 7880 nM.

Take `NS(=O)(=O)c1cccc(S(N)(=O)=O)c1`: affinity was put at a Ki of 424 nM.

Turning to `NS(=O)(=O)c1cc(Cl)cc(Cl)c1O`, the affinity corresponds to a Ki of 762 nM.

`Nc1nnc(S(N)(=O)=O)s1`: the affinity corresponds to a Ki of 10600 nM.

Consider `Nc1ccc(S(=O)(=O)NCc2ccc(S(N)(=O)=O)cc2)cc1`, for which affinity was put at a Ki of 897 nM.

In the case of `Nc1ccc(S(=O)(=O)Nc2nnc(S(N)(=O)=O)s2)cc1`, the Ki was found to be 12400 nM.

`Nc1ccc(S(=O)(=O)Nc2ccc(S(N)(=O)=O)cc2)cc1`: the Ki was 3740 nM.

Regarding `Nc1nccc(Nc2ccc(S(N)(=O)=O)cc2)n1`, the affinity corresponds to a Ki of 615 nM.

With `Nc1ccc(S(N)(=O)=O)cc1Br`, the inhibition constant (Ki) came to 94.6 nM.

`Cn1nc(S(N)(=O)=O)sc1=N`: the affinity, expressed as Ki, was 5530 nM.

`NS(=O)(=O)c1ccc(CCO)cc1` returned a Ki of 4700 nM.

`Nc1cccc(S(N)(=O)=O)c1` returned an inhibitory constant (Ki) of 295 nM.

For the compound `NS(=O)(=O)c1ccc(CO)cc1`, the affinity corresponds to a Ki of 15200 nM.

`Nc1ccc(S(N)(=O)=O)cc1Cl` showed a Ki of 167 nM.

Take `Nc1ccc(S(=O)(=O)NCCc2ccc(S(N)(=O)=O)cc2)cc1`: the Ki stood at 862 nM.

`NS(=O)(=O)c1ccc(S(=O)(=O)Nc2cccc3c(Cl)c[nH]c23)cc1` yielded an inhibition constant Ki of 375 nM.

On to `NS(=O)(=O)c1nnc(NS(=O)(=O)c2ccccc2)s1` [BENZOLAMIDE], for which the affinity corresponds to a Ki of 394 nM.

Compound `CCN[C@H]1CN(CCCOC)S(=O)(=O)c2sc(S(N)(=O)=O)cc21` [BRINZOLAMIDE] showed a Ki of 118 nM.

In the case of `NS(=O)(=O)c1ccc(C(=O)O)cc1` [CARZENIDE], the Ki was 871 nM.

Regarding `Cc1ccc(-c2cc(C(F)(F)F)nn2-c2ccc(S(N)(=O)=O)cc2)cc1` [CELECOXIB], affinity was put at a Ki of 265 nM.

The compound `NS(=O)(=O)c1cc(Cl)c(Cl)c(S(N)(=O)=O)c1` [DICHLORPHENAMIDE] registered an inhibition constant (Ki) of 458 nM.

In turn, `NCc1ccc(S(N)(=O)=O)cc1` [MAFENIDE] showed a Ki of 424 nM.

In turn, `CC(=O)/N=c1/sc(S(N)(=O)=O)nn1C` [METHAZOLAMIDE] showed an inhibition constant (Ki) of 170 nM.

In the case of `Cc1ccc(S(N)(=O)=O)cc1` [P-TOLUENESULFONAMIDE], the inhibition constant (Ki) was determined as 424 nM.

In turn, `O=C1NS(=O)(=O)c2ccccc21` [SACCHARIN] yielded a Ki of 9200 nM.

Consider `CC1(C)O[C@@H]2[C@@H](CO[C@@]3(COS(N)(=O)=O)OC(C)(C)O[C@@H]23)O1` [TOPIRAMATE], for which the Ki stood at 392 nM.

For `NS(=O)(=O)Cc1noc2ccccc12` [ZONISAMIDE], the Ki came out at 404 nM.

The Ki is the equilibrium dissociation constant of an inhibitor or competing ligand from its target. A low value points to tighter binding.
